Reference: patent US6355799B1, “Substituted benzene compounds, process for their preparation, and herbicidal and defoliant compositions containing them” (ISK Americas Incorporated, priority 1997, dated 2002)

Experiments:
Assay type in all cases: in vivo
[1] = system: redroot pigweed (Amaranthus retroflexus, AMARE); assay: Pre-emerge test, greenhouse herbicide activity screening; settings: rating scale 0-100, 14 days after application
Outline: (§1)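 Herbicidal damage is scored 0 (none) to 100 (complete plant death) two weeks after a simulated field spray. Rates span 15–1000 g ai/ha, delivered in acetone at 187 l/ha. For post-emergence treatments, plants have 2–3 leaves and the spray carries 0.25% v/v non-ionic surfactant.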

[2] = system: barnyardgrass (Echinochloa crus-galli, ECHCG); assay: as above; settings: rating scale 0-100, 14 days after application
Outline: (§2)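 Fourteen days after spraying, crop and weed injury was graded visually from 0, no effect, to 100, every plant dead. Test substances were dissolved in acetone and applied at 15–1000 g ai/ha with a flat-fan nozzle. Application was either pre-emergence, one day after sowing, or post-emergence at the 2–3 leaf stage.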

[3] = system: green foxtail (Setaria viridis, SETVI); assay: as above; settings: rating scale 0-100, 14 days after application
Outline: as §2

[4] = system: ivyleaf morningglory (Ipomoea hederacea, IPOHE); assay: as above; settings: rating scale 0-100, 14 days after application
Outline: as §2

[5] = system: johnsongrass (Sorghum halepense, SORHA); assay: as above; settings: rating scale 0-100, 14 days after application
Outline: as §2

[6] = system: lambsquarters (Chenopodium album, CHEAL); assay: as above; settings: rating scale 0-100, 14 days after application
Outline: as §2

[7] = system: large crabgrass (Digitaria sanguinalis, DIGSA); assay: as above; settings: rating scale 0-100, 14 days after application
Outline: as §2

[8] = system: sicklepod (Cassia obtusifolia, CASOB); assay: as above; settings: rating scale 0-100, 14 days after application
Outline: as §2

[9] = system: velvetleaf (Abutilon theophrasti, ABUTH); assay: as above; settings: rating scale 0-100, 14 days after application
Outline: as §2

[10] = system: field corn (Zea mays L., var. Dekalb 535, CORN); assay: Pre-emerge test, crop safety; settings: rating scale 0-100, 14 days after application
Outline: as §1

[11] = system: upland rice (Oryza sp., var. Tebonnet, RICE); assay: Pre-emerge test, crop safety; settings: rating scale 0-100, 14 days after application
Outline: as §1

[12] = system: barnyardgrass (Echinochloa crus-galli, ECHCG); assay: Post-emerge test, greenhouse herbicide activity screening; settings: post-emerge, phytotoxicity rating 0-100 at 14 days after application
Outline: (§3)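 Applied at 15–1000 g ai/ha from acetone in 187 l/ha spray volume. Post-emergence applications included 0.25% v/v non-ionic surfactant and reached plants sown 8–21 days before. Pre-emergence applications were incorporated by surface watering. Efficacy or crop damage was rated on a 0–100 scale after 14 days.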

[13] = system: green foxtail (Setaria viridis, SETVI); assay: as above; settings: post-emerge, phytotoxicity rating 0-100 at 14 days after application
Outline: as §3

[14] = system: ivyleaf morningglory (Ipomoea hederacea, IPOHE); assay: as above; settings: post-emerge, phytotoxicity rating 0-100 at 14 days after application
Outline: as §3

[15] = system: johnsongrass (Sorghum halepense, SORHA); assay: as above; settings: post-emerge, phytotoxicity rating 0-100 at 14 days after application
Outline: as §3

[16] = system: lambsquarters (Chenopodium album, CHEAL); assay: as above; settings: post-emerge, phytotoxicity rating 0-100 at 14 days after application
Outline: as §3

[17] = system: large crabgrass (Digitaria sanguinalis, DIGSA); assay: as above; settings: post-emerge, phytotoxicity rating 0-100 at 14 days after application
Outline: as §3

[18] = system: redroot pigweed (Amaranthus retroflexus, AMARE); assay: as above; settings: post-emerge, phytotoxicity rating 0-100 at 14 days after application
Outline: as §3

[19] = system: sicklepod (Cassia obtusifolia, CASOB); assay: as above; settings: post-emerge, phytotoxicity rating 0-100 at 14 days after application
Outline: as §3

[20] = system: velvetleaf (Abutilon theophrasti, ABUTH); assay: as above; settings: post-emerge, phytotoxicity rating 0-100 at 14 days after application
Outline: as §3

[21] = system: field corn (Zea mays L., var. Dekalb 535, CORN); assay: Post-emerge test, crop safety; settings: post-emerge, crop damage rating 0-100 at 14 days after application
Outline: as §2

[22] = system: upland rice (Oryza sp., var. Tebonnet, RICE); assay: Post-emerge test, crop safety; settings: post-emerge, crop damage rating 0-100 at 14 days after application
Outline: as §2

Compound: Nc1c(O)c(Cl)cc(F)c1N1C(=O)C2CCCCN2C1=S (single isomer, unassigned) [12-3]
- Pre-emerge herbicidal activity, phytotoxicity rating AMARE ([1]; 63 g ai/ha): 95
- Pre-emerge herbicidal activity, phytotoxicity rating AMARE ([1]; 250 g ai/ha): 100
- Pre-emerge herbicidal activity, phytotoxicity rating ECHCG ([2]; 63 g ai/ha): 0
- Pre-emerge herbicidal activity, phytotoxicity rating ECHCG ([2]; 250 g ai/ha): 0
- Pre-emerge herbicidal activity, phytotoxicity rating SETVI ([3]; 63 g ai/ha): 0
- Pre-emerge herbicidal activity, phytotoxicity rating SETVI ([3]; 250 g ai/ha): 30
- Pre-emerge herbicidal activity, phytotoxicity rating IPOHE ([4]; 63 g ai/ha): 0
- Pre-emerge herbicidal activity, phytotoxicity rating IPOHE ([4]; 250 g ai/ha): 90
- Pre-emerge herbicidal activity, phytotoxicity rating SORHA ([5]; 63 g ai/ha): 0
- Pre-emerge herbicidal activity, phytotoxicity rating SORHA ([5]; 250 g ai/ha): 0
- Pre-emerge herbicidal activity, phytotoxicity rating CHEAL ([6]; 63 g ai/ha): 100
- Pre-emerge herbicidal activity, phytotoxicity rating CHEAL ([6]; 250 g ai/ha): 100
- Pre-emerge herbicidal activity, phytotoxicity rating DIGSA ([7]; 63 g ai/ha): 0
- Pre-emerge herbicidal activity, phytotoxicity rating DIGSA ([7]; 250 g ai/ha): 30
- Pre-emerge herbicidal activity, phytotoxicity rating CASOB ([8]; 63 g ai/ha): 30
- Pre-emerge herbicidal activity, phytotoxicity rating CASOB ([8]; 250 g ai/ha): 70
- Pre-emerge herbicidal activity, phytotoxicity rating ABUTH ([9]; 63 g ai/ha): 100
- Pre-emerge herbicidal activity, phytotoxicity rating ABUTH ([9]; 250 g ai/ha): 100
- Pre-emerge phytotoxicity rating, crop damage CORN ([10]; 63 g ai/ha): 0
- Pre-emerge phytotoxicity rating, crop damage CORN ([10]; 250 g ai/ha): 0
- Pre-emerge phytotoxicity rating, crop damage RICE ([11]; 63 g ai/ha): 10
- Pre-emerge phytotoxicity rating, crop damage RICE ([11]; 250 g ai/ha): 20
- Post-emerge Herbicidal Activity ECHCG ([12]; 63 g ai/ha): 0
- Post-emerge Herbicidal Activity ECHCG ([12]; 250 g ai/ha): 10
- Post-emerge Herbicidal Activity SETVI ([13]; 63 g ai/ha): 0
- Post-emerge Herbicidal Activity SETVI ([13]; 250 g ai/ha): 0
- Post-emerge Herbicidal Activity IPOHE ([14]; 63 g ai/ha): 50
- Post-emerge Herbicidal Activity IPOHE ([14]; 250 g ai/ha): 90
- Post-emerge Herbicidal Activity SORHA ([15]; 63 g ai/ha): 0
- Post-emerge Herbicidal Activity SORHA ([15]; 250 g ai/ha): 50
- Post-emerge Herbicidal Activity CHEAL ([16]; 63 g ai/ha): 90
- Post-emerge Herbicidal Activity CHEAL ([16]; 250 g ai/ha): 100
- Post-emerge Herbicidal Activity DIGSA ([17]; 63 g ai/ha): 0
- Post-emerge Herbicidal Activity DIGSA ([17]; 250 g ai/ha): 0
- Post-emerge Herbicidal Activity AMARE ([18]; 63 g ai/ha): 95
- Post-emerge Herbicidal Activity AMARE ([18]; 250 g ai/ha): 99
- Post-emerge Herbicidal Activity CASOB ([19]; 63 g ai/ha): 20
- Post-emerge Herbicidal Activity CASOB ([19]; 250 g ai/ha): 80
- Post-emerge Herbicidal Activity ABUTH ([20]; 63 g ai/ha): 90
- Post-emerge Herbicidal Activity ABUTH ([20]; 250 g ai/ha): 90
- Post-emerge Herbicidal Activity CORN ([21]; 63 g ai/ha): 5
- Post-emerge Herbicidal Activity CORN ([21]; 250 g ai/ha): 10
- Post-emerge Herbicidal Activity RICE ([22]; 63 g ai/ha): 0
- Post-emerge Herbicidal Activity RICE ([22]; 250 g ai/ha): 5
